Measured values from ChEMBL document CHEMBL1141299, “Hologram QSAR model for the prediction of human oral bioavailability” (Bioorg Med Chem, 2007).

Assay: Oral bioavailability in human
Conditions: in vivo

Structure (SMILES) | bioavailability (F) | bioavailability
CN(C)CCCN1c2ccccc2CCc2ccccc21 [IMIPRAMINE] | 42% | 
CCC(C)n1ncn(-c2ccc(N3CCN(c4ccc(OC[C@H]5CO[C@](Cn6cncn6)(c6ccc(Cl)cc6Cl)O5)cc4)CC3)cc2)c1=O (stereo partly specified) [ITRACONAZOLE] | 55% | 
Nc1ccn([C@@H]2CS[C@H](CO)O2)c(=O)n1 [LAMIVUDINE] | 86% | 
Cc1c(OCC(F)(F)F)ccnc1C[S+]([O-])c1nc2ccccc2[nH]1 (stereo unspecified) [LANSOPRAZOLE] |  | 80%
N#Cc1ccc(C(c2ccc(C#N)cc2)n2cncn2)cc1 [LETROZOLE] | 99.9% | 
CCN[C@H](C)Cc1cccc(C(F)(F)F)c1 [LEVOFENFLURAMINE] |  | 89%
CCC(=O)C(C[C@@H](C)N(C)C)(c1ccccc1)c1ccccc1 [LEVOMETHADONE] |  | 92%
CC[C@H](OC(C)=O)C(C[C@H](C)N(C)C)(c1ccccc1)c1ccccc1 [LEVOMETHADYL ACETATE] |  | 47%
C#C[C@]1(O)CC[C@H]2[C@@H]3CCC4=CC(=O)CC[C@@H]4[C@H]3CC[C@@]21CC [LEVONORGESTREL] | 87% | 
CN1C[C@H](CNC(=O)OCc2ccccc2)C[C@@H]2c3cccc4c3c(cn4C)C[C@H]21 [METERGOLINE] |  | 23%
C=C1c2cccc(O)c2C(=O)C2=C(O)[C@]3(O)C(=O)C(C(N)=O)=C(O)[C@@H](N(C)C)[C@@H]3[C@@H](O)[C@H]12 [METHACYCLINE] | 58% | 
Cn1cc[nH]c1=S [METHIMAZOLE] | 93% | 
CN(Cc1cnc2nc(N)nc(N)c2n1)c1ccc(C(=O)N[C@@H](CCC(=O)O)C(=O)O)cc1 [METHOTREXATE] | 70% | 
C[C@H]1C[C@@H]2[C@H]([C@@H](O)C[C@@]3(C)[C@H]2CC[C@]3(O)C(=O)CO)[C@@]2(C)C=CC(=O)C=C12 [METHYLPREDNISOLONE] | 82% | 
CC[C@@H](CO)NC(=O)[C@@H]1C=C2c3cccc4c3c(cn4C)C[C@H]2N(C)C1 [METHYSERGIDE] |  | 13%
CS(=O)(=O)c1ccc2c(c1)N(CCCN1CCC(C(N)=O)CC1)c1ccccc1S2 [METOPIMAZINE] | 19% | 

Structure (SMILES) | bioavailability (F) | bioavailability
Cc1ncc2n1-c1ccc(Cl)cc1C(c1ccccc1F)=NC2 [MIDAZOLAM] |  | 40.5%
Cc1[nH]c(=O)c(C#N)cc1-c1ccncc1 [MILRINONE] | 92% | 
CN(C)c1ccc(O)c2c1C[C@H]1C[C@H]3[C@H](N(C)C)C(O)=C(C(N)=O)C(=O)[C@@]3(O)C(O)=C1C2=O [MINOCYCLINE] | 97.5% | 
CCOC(=O)[C@H](CCc1ccccc1)N[C@@H](C)C(=O)N1Cc2cc(OC)c(OC)cc2C[C@H]1C(=O)O [MOEXIPRIL] | 13% | 
CC(C)(O)c1ccccc1CC[C@@H](SCC1(CC(=O)O)CC1)c1cccc(/C=C/c2ccc3ccc(Cl)cc3n2)c1 [MONTELUKAST] | 73% | 
COc1c(N2C[C@@H]3CCCN[C@@H]3C2)c(F)cc2c(=O)c(C(=O)O)cn(C3CC3)c12 [MOXIFLOXACIN] |  | 90%
COc1c(C)c2c(c(O)c1C/C=C(\C)CCC(=O)O)C(=O)OC2 [MYCOPHENOLIC ACID] | 72% | 
Oc1ccc2c3c1O[C@H]1[C@@H](O)CC[C@@]4(O)[C@@H](C2)N(CC2CCC2)CC[C@]314 [NALBUPHINE] |  | 11%
C=CCN1CC[C@]23c4c5ccc(O)c4O[C@H]2C(=O)CC[C@@]3(O)[C@H]1C5 [NALOXONE] |  | 2%
O=C1CC[C@@]2(O)[C@H]3Cc4ccc(O)c5c4[C@@]2(CCN3CC2CC2)[C@H]1O5 [NALTREXONE] |  | 20%
Cc1ccnc2c1NC(=O)c1cccnc1N2C1CC1 [NEVIRAPINE] |  | 93%
COC(=O)C1=C(C)NC(C)=C(C(=O)OC)C1c1ccccc1[N+](=O)[O-] [NIFEDIPINE] |  | 50%
O=C1CN=C(c2ccccc2)c2cc([N+](=O)[O-])ccc2N1 [NITRAZEPAM] |  | 78%
O=C1CN(/N=C/c2ccc([N+](=O)[O-])o2)C(=O)N1 [NITROFURANTOIN] | 87% | 
CNC(=C[N+](=O)[O-])NCCSCc1csc(CN(C)C)n1 [NIZATIDINE] | 70% | 
